From PMC9395446, “First-in-human phase 1/1b study to evaluate sitravatinib in patients with advanced solid tumors” (Investigational New Drugs, 2022)

Test: Safety in phase 1/1b study (DLTs, TRAEs, TEAEs; CTCAE v4.03)
Type: in vivo, human
Text: Safety assessments included evaluation of DLTs, AEs, physical examinations, vital sign measurements, electrocardiogram recordings and laboratory tests.
A DLT was defined as a grade ≥ 4 hematologic abnormality lasting ≥ 4 days; grade 3 thrombocytopenia with clinically significant bleeding; febrile neutropenia; clinically significant grade ≥ 3 non-hematologic AEs not related to underlying malignancy; intolerable grade 2 AEs; or toxicity resulting in an inability to deliver 80% of the dose during the first treatment cycle.
The safety population included all patients who received ≥ 1 dose of sitravatinib. […] The PK evaluable population included all patients with sufficient concentration-time data for PK parameter evaluation. The modified intent-to-treat (mITT) population included all phase 1b patients who received ≥ 1 dose of study drug.

COCCNCc1ccc(-c2cc3nccc(Oc4ccc(NC(=O)C5(C(=O)Nc6ccc(F)cc6)CC5)cc4F)c3s2)nc1 [sitravatinib, Sitravatinib]
Hypophosphatemia TEAE, grade ≥3 (150 mg phase 1b): 9 (9.1) n (%) | Hypothyroidism TEAE, any grade (150 mg phase 1b): 22 (22.2) n (%) | Hypothyroidism TEAE, grade ≥3 (150 mg phase 1b): 0 n (%) | Hypothyroidism TRAE, any grade (150 mg phase 1b): 16 (16.2) n (%) | Hypothyroidism TRAE, grade ≥3 (150 mg phase 1b): 0 n (%) | Infections and infestations TEAE, any grade (150 mg phase 1b): 40 (40.4) n (%) | Infections and infestations TEAE, grade ≥3 (150 mg phase 1b): 12 (12.1) n (%) | Injury, poisoning, procedural complications TEAE, any grade (150 mg phase 1b): 20 (20.2) n (%) | Injury, poisoning, procedural complications TEAE, grade ≥3 (150 mg phase 1b): 2 (2.0) n (%) | Investigations TEAE, any grade (150 mg phase 1b): 66 (66.7) n (%) | Investigations TEAE, grade ≥3 (150 mg phase 1b): 23 (23.2) n (%) | Lipase increased TEAE, any grade (150 mg phase 1b): 15 (15.2) n (%) | Lipase increased TEAE, grade ≥3 (150 mg phase 1b): 10 (10.1) n (%) | Metabolism and nutrition disorders TEAE, any grade (150 mg phase 1b): 71 (71.7) n (%) | Metabolism and nutrition disorders TEAE, grade ≥3 (150 mg phase 1b): 26 (26.3) n (%) | Musculoskeletal and connective tissue disorders TEAE, any grade (150 mg phase 1b): 56 (56.6) n (%) | Musculoskeletal and connective tissue disorders TEAE, grade ≥3 (150 mg phase 1b): 8 (8.1) n (%) | Nausea TEAE, any grade (150 mg phase 1b): 49 (49.5) n (%) | Nausea TEAE, grade ≥3 (150 mg phase 1b): 7 (7.1) n (%) | Nausea TRAE, any grade (150 mg phase 1b): 38 (38.4) n (%) | Nausea TRAE, grade ≥3 (150 mg phase 1b): 5 (5.1) n (%) | Neoplasms benign, malignant, unspecified TEAE, any grade (150 mg phase 1b): 10 (10.1) n (%) | Neoplasms benign, malignant, unspecified TEAE, grade ≥3 (150 mg phase 1b): 8 (8.1) n (%) | Nervous system disorders TEAE, any grade (150 mg phase 1b): 50 (50.5) n (%) | Nervous system disorders TEAE, grade ≥3 (150 mg phase 1b): 5 (5.1) n (%) | PPE syndrome TEAE, any grade (150 mg phase 1b): 23 (23.2) n (%) | PPE syndrome TEAE, grade ≥3 (150 mg phase 1b): 4 (4.0) n (%) | PPE syndrome TRAE, any grade (150 mg phase 1b): 22 (22.2) n (%) | PPE syndrome TRAE, grade ≥3 (150 mg phase 1b): 4 (4.0) n (%) | Pain in extremity TEAE, any grade (150 mg phase 1b): 15 (15.2) n (%) | Pain in extremity TEAE, grade ≥3 (150 mg phase 1b): 2 (2.0) n (%) | Proteinuria TEAE, any grade (150 mg phase 1b): 11 (11.1) n (%) | Proteinuria TEAE, grade ≥3 (150 mg phase 1b): 0 n (%) | Proteinuria TRAE, any grade (150 mg phase 1b): 9 (9.1) n (%) | Proteinuria TRAE, grade ≥3 (150 mg phase 1b): 0 n (%) | Psychiatric disorders TEAE, any grade (150 mg phase 1b): 25 (25.3) n (%) | Psychiatric disorders TEAE, grade ≥3 (150 mg phase 1b): 1 (1.0) n (%) | Rash TEAE, any grade (150 mg phase 1b): 12 (12.1) n (%) | Rash TEAE, grade ≥3 (150 mg phase 1b): 0 n (%) | Rash TRAE, any grade (150 mg phase 1b): 11 (11.1) n (%) | Rash TRAE, grade ≥3 (150 mg phase 1b): 0 n (%) | Renal and urinary disorders TEAE, any grade (150 mg phase 1b): 23 (23.2) n (%) | Renal and urinary disorders TEAE, grade ≥3 (150 mg phase 1b): 1 (1.0) n (%) | Respiratory, thoracic and mediastinal disorders TEAE, any grade (150 mg phase 1b): 65 (65.7) n (%) | Respiratory, thoracic and mediastinal disorders TEAE, grade ≥3 (150 mg phase 1b): 14 (14.1) n (%) | Serious TEAE (150 mg phase 1b): 49 (49.5) n (%) | Serious TRAE (150 mg phase 1b): 22 (22.2) n (%) | Skin and subcutaneous tissue disorders TEAE, any grade (150 mg phase 1b): 55 (55.6) n (%) | Skin and subcutaneous tissue disorders TEAE, grade ≥3 (150 mg phase 1b): 6 (6.1) n (%) | Stomatitis TEAE, any grade (150 mg phase 1b): 14 (14.1) n (%) | Stomatitis TEAE, grade ≥3 (150 mg phase 1b): 1 (1.0) n (%) | Stomatitis TRAE, any grade (150 mg phase 1b): 14 (14.1) n (%) | Stomatitis TRAE, grade ≥3 (150 mg phase 1b): 1 (1.0) n (%) | TEAE grade ≥3 (150 mg phase 1b): 80 (80.8) n (%) | TEAE leading to death (150 mg phase 1b): 10 (10.1) n (%) | TEAE leading to discontinuation (150 mg phase 1b): 24 (24.2) n (%) | TEAE leading to treatment modification (150 mg phase 1b): 74 (74.7) n (%) | TRAE grade ≥3 (150 mg phase 1b): 61 (61.6) n (%) | TRAE leading to death (150 mg phase 1b): 1 (1.0) n (%) | TRAE leading to discontinuation (150 mg phase 1b): 17 (17.2) n (%) | TRAE leading to treatment modification (150 mg phase 1b): 66 (66.7) n (%) | UTI TEAE, any grade (150 mg phase 1b): 14 (14.1) n (%) | UTI TEAE, grade ≥3 (150 mg phase 1b): 3 (3.0) n (%) | Vascular disorders TEAE, any grade (150 mg phase 1b): 61 (61.6) n (%) | Vascular disorders TEAE, grade ≥3 (150 mg phase 1b): 32 (32.3) n (%) | Vomiting TEAE, any grade (150 mg phase 1b): 38 (38.4) n (%) | Vomiting TEAE, grade ≥3 (150 mg phase 1b): 10 (10.1) n (%) | Vomiting TRAE, any grade (150 mg phase 1b): 31 (31.3) n (%) | Vomiting TRAE, grade ≥3 (150 mg phase 1b): 5 (5.1) n (%) | Weight decreased TEAE, any grade (150 mg phase 1b): 28 (28.3) n (%) | Weight decreased TEAE, grade ≥3 (150 mg phase 1b): 3 (3.0) n (%) | Weight decreased TRAE, any grade (150 mg phase 1b): 18 (18.2) n (%) | Weight decreased TRAE, grade ≥3 (150 mg phase 1b): 2 (2.0) n (%) | ALT increased TEAE, any grade (Overall): 46 (23.8) n (%) | ALT increased TEAE, grade ≥3 (Overall): 5 (2.6) n (%) | ALT increased TRAE, any grade (Overall): 35 (18.1) n (%) | ALT increased TRAE, grade ≥3 (Overall): 3 (1.6) n (%) | AST increased TEAE, any grade (Overall): 47 (24.4) n (%) | AST increased TEAE, grade ≥3 (Overall): 4 (2.1) n (%)
